Read-outs that look alike come from different tables or passages of the source.
Experiments:
[1] = single IV dose; for dose proportionality of plasma exposures (Cmax and AUCinf): healthy participants
Excerpt: (§1) Methods The entry-into-human study (BP41732) was a double-blind, placebo-controlled, randomized, single-and multiple ascending dose study in healthy participants. In Part 1 (SAD) of Study BP41732, participants were randomized 3:1 to receive IV zosurabalpin or placebo in sequential single ascending dose cohorts. The mass balance study (BP43532) was a non-randomized, non-controlled, open-label, single IV dose study in healthy male participants. […] Disclosures Andreas Guenther, PhD, F. Hoffmann-La Roche Ltd: Employee Amanda Messer, BPharm, Roche Products Ltd: Employee Mylène Giraudon, PharmD, F. Hoffmann-La Roche Ltd: Employee Katie Patel, MSc, Roche Products Limited: Employer|Roche Products Limited: Stocks/Bonds Erik J. Deurloo, MSc, F. Hoffmann-La Roche Ltd: Salary|F. Hoffmann-La Roche Ltd: Stocks/Bonds Michael Lobritz, MD, PhD, Roche: full time employee|Roche: full time employee

healthy participants = tested on: healthy participants
Excerpt: as §1

[2] = healthy male participants, study BP43532, average
[3] = healthy participants, single IV dose 10 mg to 2000 mg

CN1C(=O)[C@H](CCCCN)NC(=O)[C@H](CCCN)NCc2cccnc2Sc2cccc(-c3ccc(C(=O)O)cc3)c2CNC(=O)[C@@H]1Cc1c[nH]c2ccccc12 [zosurabalpin, Zosurabalpin]
total [14C]-radioactivity recovered in feces, % of the administered dose [1, 2]: 48.0 % of the administered dose
total [14C]-radioactivity recovered in urine, % of the administered dose [1, 2]: 52.6 % of the administered dose
dose proportionality of plasma exposures (Cmax and AUCinf) ([1]; above 1000 mg up to 2000 mg): more than dose-proportionally
dose proportionality of plasma exposures (Cmax and AUCinf) ([1]; up to 1000 mg): increased approximately dose-proportionally
treatment-related infusion-related reactions (IRRs), participants affected / participants dosed (healthy participants; healthy male and female participants, single IV dose 10 mg to 2000 mg, studies BP41732 Part 1 (SAD) and BP43532, preliminary data): 9/64
changes in laboratory values, ECGs or vital signs compared to placebo (healthy participants; [3]): did not show any clinically significant changes
dose dependence of IRR occurrence (healthy participants; [3]): appeared to be dose-dependent
overall safety and tolerability (healthy participants; healthy participants, single IV doses of 10 mg to 2000 mg): safe and overall well tolerated

— publication PMC10678405, “2126. Safety, Tolerability, and Pharmacokinetics (PK) in Healthy Participants Following Single Dose Administration of Zosurabalpin, a Novel Pathogen-Specific Antibiotic for the Treatment of Serious Acinetobacter Infections” (Open Forum Infectious Diseases, 2023)
